Laboratory results as given in patent US20150352134A1, “COMPOSITION FOR TOPICAL SKIN APPLICATION CONTAINING GINSENOSIDE F2 DERIVED FROM HYDROPONIC GINSENG” (AMOREPACIFIC CORPORATION, priority 2012, published 2015).

What was measured:
tyrosinase [1] = experiment: Tyrosinase inhibitory effect; format: biochemical, mushrooms; conditions: 37° C., absorbance 475 nm
Experimental: The tyrosinase as used herein is an enzyme extracted from mushrooms and purchased from Sigma-Aldrich. Firstly, tyrosine as a substrate is dissolved in distilled water to prepare a 0.3 mg/mL solution, which is added dropwise to a test tube at an amount of 1.0 mL each time. To the solution are added 1.0 mL of a potassium phosphate buffer solution (0.1 mol, pH 6.8) and 0.7 mL of distilled water.
0.2 mL of the sample solution is added to the reactant solution and then allowed to have a reaction in a thermostat container at 37° C. for 10 minutes. In this regards, the control is the reactant solution containing 0.2 mL of a solvent alone in place of each sample solution. The positive control uses ascorbic acid. 0.1 mL of a 2500 unit/mL tyrosinase solution is added to the reactant solution, which is then allowed to have a reaction again in a thermostat container at 37° C. for 10 minutes. The test tube filled with the reactant solution is put into an ice water to cause quenching and thus stop the reaction. The absorbance at 475 nm is measured with a photoelectric spectrophotometer. The tyrosinase inhibitory effect is calculated according to the following mathematical formula 3.

elastase type III = target: T1, elastase type III (Sus scrofa, UniProt P00772); experiment: Elastase inhibitory effect; format: biochemical; conditions: EGCG 250 μM; 25° C., 15 minutes, absorbance 415 nm
T1 construct: purchased Sigma-Aldrich E0127
T1 sequence (P00772 27-266): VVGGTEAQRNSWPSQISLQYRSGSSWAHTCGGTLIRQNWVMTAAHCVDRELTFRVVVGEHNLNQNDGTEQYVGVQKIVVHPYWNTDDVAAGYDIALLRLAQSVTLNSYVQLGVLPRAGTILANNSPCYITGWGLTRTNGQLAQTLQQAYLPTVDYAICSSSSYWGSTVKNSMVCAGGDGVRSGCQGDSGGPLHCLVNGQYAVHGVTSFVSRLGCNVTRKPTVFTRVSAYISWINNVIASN
Experimental: The elastase inhibitory function of the ginsenoside F2 is measured in comparison with that of EGCG. The elastase and the substrate used herein are purchased from Sigma-Aldrich, U.S.A. (Cat. No. E0127).
The elastase inhibitory function is measured according to the following method.
In a 96-well plate, ginsenoside F2 (200 μL) and 50 μL of a 20 μg/mL elastase type III solution are mixed with a […] tris-HCL buffer solution (pH 8.0). The positive control is EGCG 250 μM, and the negative control which is a non-treated group is distilled water. Then, 100 μL of 0.4514 mg/mL N-succinyl-ala-ala-ala-p-nitroanilide prepared with the buffer solution is added to the mixture and allowed to react at 25° C. for 15 minutes. After completion of the reaction, the absorbance at 415 nm was measured. The blank test is performed in the same manner as described above to achieve calibration verification.
The elastase inhibitory function is calculated according to the following mathematical formula 1, and the results are presented in Table 2.
Elastase inhibition rate (%)={1−(C−D)/(A−B)}×100 [Mathematical Formula 1]
A: Absorbance at 415 nm with enzyme and no test substance.
B: Absorbance at 415 nm with no test substance and no enzyme.
C: Absorbance at 415 nm with test substance and enzyme.
D: Absorbance at 415 nm with test substance and no enzyme.

[2] = system: mouse with vitiligo (C57b1/6-Mitf^mi-vit); experiment: Grey hair prevention: melanin in newly grown hair of mouse with vitiligo; format: in vivo; conditions: applied twice a day, about 3 weeks, 50 mM IBMX, 2.5% ginsenoside F2
Experimental: A mouse with vitiligo (C57b1/6-Mitf^mi-vit) is purchased from The Jackson Lab in U.S.A. The testing method on the grey hair inhibitory effect using a mouse with lots of grey hair is carried out as follows. A 12-week old mouse is subjected to depilation on the back side. The area of the depilated region is controlled to be the same to every object. From the next day of the depilation, the grey hair inhibitory substances are applied on the depilated region twice a day. The vehicle for the grey hair inhibitory substances is the mixture of EtOH, 1,3-BG and DW (3:2:5 in volume ratio). The liquid containing the vehicle alone is the negative control, the liquid containing the vehicle in combination with 50 mM IBMX is the positive control, and the liquid containing the vehicle in combination with 2.5% ginsenoside F2 is the test group. When the difference in the grey hair inhibitory effect between the substances is visually recognizable in about 3 weeks, the newly grown hair is collected to measure the quantity of melanin produced in the hair. The quantity of melanin in the hair is measured using esperase (Novozyme) strains that are a protein hydrolase. Esperase is dissolved in a buffer solution (50 mM tris-HCl, 5 mM DTT, pH 9.3) to a concentration of 1 NPU/ml to prepare a reaction buffer. 5 mg of mouse hair is put in 1 ml of the reaction buffer, which is stirred at a speed of 1,000 rpm at 37° C. for 13 hours to cause the reaction and then subjected to a momentary centrifugal isolation to separate the reactant solution from hair. The reactant solution thus obtained is placed in each well of a 96-well plate, and the absorbance at 405 nm is measured to determine the amount of melanin in the reactant solution. When a mouse with vitiligo and lots of grey hair is treated with the negative control substance, the positive control substance, or the test substance, the efficacies are visually observed, and the melanin in hair is quantitatively analyzed.

MITF = MITF expression in melanocytes (Western Blot); format: cell-based; conditions: 501me1 cell line, IBMX 100 μM, ginsenoside 10 ppm
Experimental: (§1) 501me1 cell line is injected in each well of a 6-well microtiter plate at a rate of 500,000 cells/well. The cell line in each well is treated with 0.1% of DMSO as the negative control group, 100 μM of IBMX as the positive control group, or ginsenoside 10 ppm of F2 as the test group, and cultured at 37° C. for 24 hours, 48 hours, or 72 hours, to obtain proteins. The proteins thus obtained are subjected to Western Blot using MITF and tyrosinase antibodies. Protein extraction and Western Blot are performed using the standard methods known in the art.

tyrosinase [3] = experiment: Tyrosinase expression in melanocytes (Western Blot); format: cell-based; conditions: 501me1 cell line, IBMX 100 μM, ginsenoside 10 ppm
Experimental: as §1

Melanin-a cells = experiment: Melanogenesis promotion in Melanin-a cells; format: cell-based; conditions: 100 μM, 3 days; DMSO (0.1%) = 100
Experimental: Melanin-a cells are injected in a 24-well microtiter plate at a rate of 50,000 cells per well with an RPMI medium containing 5% fetal bovine serum, 100 IU penicillin G, and 0.2 μM TPA. Next day, the cells are treated with ginsenoside F2 as a test substance independently at the final concentration of 10 ppm or 50 ppm. The negative control is treated with 0.1% DMSO, and the positive control is treated with 100 μM IBMX. Then, the cells are cultured at 37° C. for 3 days. The wells of the plate are washed with PBS, and 100 μl of 1N NaOH is added to each well to dissolve melanin in the cells. The absorbance of the dissolved melanin is measured at 405 nm with a microplate reader. The effect of the ginsenoside F2 to promote melanogenesis is evaluated in comparison with that of the control groups.

B16/F10 melanoma cells = experiment: Melanogenesis inhibition in B16/F10 melanoma cells; format: cell-based; conditions: sample containing 0.001 wt. % of test substance; 3-day cultivation
Experimental: As a test substance, a sample containing 0.001 wt. % of ginsenoside F2 or kojic acid is added to a culture medium of B16/F10 melanoma cells (available from Korean Cell Line Bank) at a predetermined concentration. The culture medium is eliminated after 3-day cultivation. The cells are washed with PBS and dissolved in 1N NaOH. Then, the absorbance at 405 nm is measured. The control is the cells not treated with any test substance. In comparison with the melanin content in the control group, the inhibitory ability of each test substance against melanogenesis is measured. […] [formula]

[4] = system: potassium ion channels (KATP channels); experiment: KATP channel opener test: recovery of NIH3T3 proliferation blocked by tolbutamide (WST-1); format: cell-based, mouse; conditions: 10 μM minoxidil after 2.5 mM tolbutamide, 48 hours
Text: Minoxidil, a treatment for hair loss, is known as a potassium ion channel opener (KATP channel opener) potentially acting on mitochondria and a representative drug used for treatment of androgenic alopecia (hair loss). A testing method used to evaluate the action of minoxidil includes treating with tolbutamide (SIGMA-ALDRICH, T0891) blocking the potassium ion channels (KATP channels) in fibroblasts constituting the corium of scalp to inhibit cell proliferation and then opening the potassium ion channels (KATP channels) to resume the cell proliferation. In order to evaluate the function of the composition of the present invention as a KATP channel opener, the present invention uses a mouse embryonic fibroblast cell line, NIH3T3, as fibroblasts. The cell line is obtained by naturally immortalizing a fibroblast cell line isolated from an NIH Swiss mouse embryo with 3T3 protocol. The cell line is cultured with DMEM (Dulbecco's modified eagle's medium, Gibco BRL, Gaithersburg, Md., U.S.A.) containing 10% FBS (Fetal Bovine Serum) in an incubator under the conditions of 5% CO2 and 37° C. for 24 hours.

5α-reductase = target: T2, 5α-reductase (Homo sapiens, UniProt P31213); experiment: 5α-reductase activity inhibition, conversion of [14C]testosterone to DHT in HEK293-5α R2 cells; format: cell-based; conditions: 2 hours
T2 construct: 3×FLAG; expressed in transfected cells; host or cells: HEK293
T2 sequence (P31213 1-254): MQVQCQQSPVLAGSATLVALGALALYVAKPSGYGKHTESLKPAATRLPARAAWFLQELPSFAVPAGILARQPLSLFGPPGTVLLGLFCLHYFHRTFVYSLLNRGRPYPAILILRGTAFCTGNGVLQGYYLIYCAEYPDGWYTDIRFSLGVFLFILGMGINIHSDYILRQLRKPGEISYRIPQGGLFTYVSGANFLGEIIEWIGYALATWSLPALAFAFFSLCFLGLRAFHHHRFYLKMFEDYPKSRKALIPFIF
Experimental: In order to evaluate the inhibitory effect on the activity of 5α-reductase, the conversion rate from [^14C]testosterone to [^14C]dihydrotestosterone (DHT) in HEK293-5α R2 cells is measured. P3×FLAG-CMV-5α R2 is transduced into HEK293 cells, which are cultured in a 24-well plate at a rate of 2.5×10^5 cells per well (Park et al., 2003, JDS. Vol. 31, pp. 191-98). The next day, the used culture medium is replaced with a new culture medium containing an enzyme substrate and an inhibitor. The substrate of the culture medium is 0.05 μCi [^14C]testosterone (Amersham Pharmacia Biotech, UK).
To evaluate the degree of 5α-reductase activity inhibition, the cells are treated with ginsenoside F2 and then cultured in a 5% CO2 incubator at 37° C. for 2 hours. In this regard, the negative control is the group not treated with ginsenoside F2, while the positive control is the group treated with finasteride. Subsequently, the culture medium is collected to extract steroids with 800 μl of ethylacetate, and the supernatant organic solvent phase is isolated and dried. The residue is dissolved in 50 μl of ethylacetate and developed on silica plastic sheet kieselgel 60 F254 using an ethylacetate-hexane (1:1) solvent.
The plastic sheet is dried out in the air and measured in regards to the abundance of isotope using a bath system. The dry plastic sheet together with an X-ray film is put in a bath cassette. After one week, the abundance of isotope of testosterone and dihydrotestosterone remaining on the film is measured to calculate the conversion rate and the inhibition rate according to the following mathematical formulas 5 and 6, respectively.

collagenase (MMP-1) = experiment: Collagenase (MMP-1) expression in human fibroblasts (ELISA); format: cell-based; conditions: 10 μg/mL for 24 hours; not treated control = 100
Experimental: The ginsenoside F2 of the present invention is measured in regards to the inhibitory effect on the generation of collagenase in comparison with retinoic acid. […] The human fibroblasts are treated with ginsenoside F2 or retinoic acid at a concentration of 10 μg/mL for 24 hours. Then, the cell culture medium is collected. The production yield of collagenase in the collected cell culture medium is measured using a collagenase measurement instrument commercially available (Catalog #. RPN 2610, USA Amersham Pharma Inc.). Firstly, the collected cell culture medium is put in each well of a 96-well plate uniformly coated with the primary collagenase antibodies and then subjected to antigen-antibody reactions in a thermostat container for 3 hours. After 3 hours, the secondary collagenase antibodies coupled to the chromophore groups are put in each well of the 96-well plate and then allowed to react for more 15 minutes. […] The intensity of yellowness in the reaction mixture is varied depending on the progress of the reaction. The absorbance of the yellow-colored 96-well plate is measured at 405 nm with a spectrophotometer, and the expression level of collagenase is calculated according to the following mathematical formula 2. In this regard, the absorbance of the cell culture medium collected from the group not treated with the composition of the present invention is considered as the absorbance of the control. [formula]

[5] = system: procollagen type (I) in fibroblasts; experiment: Collagen biosynthesis in fibroblasts (procollagen type (I) ELISA); format: cell-based; conditions: 10 ng/ml, 24 hours; non-treated group = 100%
Experimental: The ginsenoside F2 of the present invention is compared with TGF-β in regards to the effect of promoting biosynthesis of collagen. Firstly, fibroblasts are seeded in 24 wells at a rate of 10^5 per well and cultured until the growth reaches 90%. The fibroblasts are cultured in a non-serum culture medium for 24 hours, treated with each 10 ng/ml of ginsenoside F2 or TGF-β dissolved in the non-serum culture medium, and then cultured in a CO2 incubator for 24 hours. The supernatant liquid is collected to determine an increase or decrease of procollagen using a procollagen type (I) ELISA kit. The collagen synthesis ability is denoted with respect to 100% for the non-treated group.

## O=C1O[C@H]([C@@H](O)CO)C(O)=C1O [Ascorbic acid, ascorbic acid]
Tyrosinase [1]
  Tyrosinase inhibition rate (%): 52%

## O=C(O[C@@H]1Cc2c(O)cc(O)cc2O[C@@H]1c1cc(O)c(O)c(O)c1)c1cc(O)c(O)c(O)c1 [EGCG]
Elastase type III
  Inhibition rate (%) (elastase): 65%

## CC(C)Cn1c(=O)n(C)c(=O)c2[nH]cnc21 [IBMX]
[2]
  Amount of melanin (%) with respect to control: 105.9%
MITF; 24 hrs
  MITF (Western Blot, in comparison with 100 of the negative control group): 121
MITF; 48 hrs
  MITF (Western Blot, in comparison with 100 of the negative control group): 98
MITF; 72 hrs
  MITF (Western Blot, in comparison with 100 of the negative control group): 224
Tyrosinase [3]; 24 hrs
  Tyrosinase (Western Blot, in comparison with 100 of the negative control group): 160
Tyrosinase [3]; 48 hrs
  Tyrosinase (Western Blot, in comparison with 100 of the negative control group): 149
Tyrosinase [3]; 72 hrs
  Tyrosinase (Western Blot, in comparison with 100 of the negative control group): 298
Melanin-a cells
  Yield of Melanin (%): 120%

## O=c1cc(CO)occ1O [Kojic acid, kojic acid]
B16/F10 melanoma cells
  Melanogenesis inhibition rate (%): 53%

## Nc1cc(N2CCCCC2)nc(N)[n+]1[O-] [Minoxidil]
[4]
  Cell proliferation ability (%): 132%

## CC(C)(C)NC(=O)[C@H]1CC[C@H]2[C@@H]3CC[C@H]4NC(=O)C=C[C@]4(C)[C@H]3CC[C@]12C [Positive control, finasteride, reference compound]
5α-reductase; 5α-reductase activity
  Inhibition rate (%): 42.5%
5α-reductase; testosterone to dihydrotestosterone
  Conversion rate (%): 27.6%

## CC1=C(/C=C/C(C)=C/C=C/C(C)=C/C(=O)O)C(C)(C)CCC1 [Retinoic acid, retinoic acid]
Collagenase (MMP-1)
  Collagenase expression level(%): 75%

## TGF-β
[5]
  Collagen synthesis ability (%): 183.5%
